From paper PMC7682989, “Large domain movements through the lipid bilayer mediate substrate release and inhibition of glutamate transporters” (eLife, 2020)
Positions count from the first letter of the chain named.

Key:
[1] = target: GltPh-K55C/C321A/A364C, cross-linked with HgCl2 (GltPh^IFS) (UniProt O59010); test: cryo-EM structure; single-particle cryo-EM of GltPh reconstituted into MSP1E3 nanodiscs (E. coli polar lipid extract : egg phosphatidylcholine 3:1); 20 mM Hepes/Tris pH 7.4, 200 mM NaCl with 1 mM L-asp, 10 mM DL-TBOA, 10 mM TFB-TBOA or NaCl only; 3D classes without symmetry, then C3 refinement
[2] = target: T1, GltPh (Pyrococcus horikoshii, UniProt O59010, D37H/K40H/K125H/K132H/K223H/K264H/E368H); test: cryo-EM structure; assay type: binding; conditions: outward-facing state, MSP1E3 nanodiscs; 200 mM NaCl, 10 mM DL-TBOA, pH 7.4
T1 construct: gene PH1295; C-terminal His8 cut by thrombin; E. coli DH10B; homotrimer; DDM (ITC) or MSP1E3 nanodiscs (cryo-EM)
T1 sequence (O59010 1-425 D37H/K40H/K125H/K132H/K223H/K264H/E368H limits assumed): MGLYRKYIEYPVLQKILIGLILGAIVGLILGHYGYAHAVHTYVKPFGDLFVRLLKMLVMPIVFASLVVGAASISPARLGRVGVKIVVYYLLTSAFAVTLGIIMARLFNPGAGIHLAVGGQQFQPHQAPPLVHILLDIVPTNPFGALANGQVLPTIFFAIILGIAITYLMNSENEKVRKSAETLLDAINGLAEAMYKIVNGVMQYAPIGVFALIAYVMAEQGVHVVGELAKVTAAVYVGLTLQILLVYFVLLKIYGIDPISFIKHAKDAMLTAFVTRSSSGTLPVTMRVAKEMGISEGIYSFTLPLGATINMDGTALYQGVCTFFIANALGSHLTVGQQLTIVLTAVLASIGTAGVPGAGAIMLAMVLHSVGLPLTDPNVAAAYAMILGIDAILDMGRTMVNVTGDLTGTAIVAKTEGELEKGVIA

[3] = target: T2, GltPh (Pyrococcus horikoshii, UniProt O59010, D37H/K40H/K55C/K125H/K132H/K223H/K264H/C321A/A364C/E368H); test: cryo-EM structure; assay type: binding; conditions: inward-facing, Hg2+-crosslinked K55C/A364C; MSP1E3 nanodiscs; 200 mM NaCl, 1 mM L-asp, pH 7.4
T2 construct: gene PH1295; C-terminal His8 cut by thrombin; E. coli DH10B; homotrimer; DDM (ITC) or MSP1E3 nanodiscs (cryo-EM)
T2 sequence (O59010 1-425 D37H/K40H/K55C/K125H/K132H/K223H/K264H/C321A/A364C/E368H limits assumed): T1 sequence (O59010 1-425 D37H/K40H/K125H/K132H/K223H/K264H/E368H limits assumed) with K55C, C321A, A364C

[4] = target: T2, GltPh; test: isothermal titration calorimetry; assay type: binding; conditions: inward-facing, Hg2+-crosslinked K55C/A364C; DDM; 200 mM NaCl, pH 7.4, 15 °C; n 0.8; structure in nanodiscs 3.71 Å
[5] = target: GltPh, the fully functional seven-histidine mutant referred to as wildtype (WT) (UniProt O59010); test: cryo-EM structure; single-particle cryo-EM of GltPh reconstituted into MSP1E3 nanodiscs (E. coli polar lipid extract : egg phosphatidylcholine 3:1); 20 mM Hepes/Tris pH 7.4, 200 mM NaCl with 1 mM L-asp, 10 mM DL-TBOA, 10 mM TFB-TBOA or NaCl only; 3D classes without symmetry, then C3 refinement

Compound: GltPh-K55C/C321A/A364C, cross-linked with HgCl2 (GltPh^IFS) (from UniProt O59010 1-425) (natural protein)
- stoichiometry N [1]: 3

Compound: NC(C(=O)O)C(OCc1ccccc1)C(=O)O (racemic) [DL-TBOA, DL-threo-β-benzyloxyaspartate]
- cryo-EM structure [2]: wild type outward-facing GltPh in complex with TBOA (GltPh^OFS-TBOA)

Compound: N[C@@H](CC(=O)O)C(=O)O [L-asp]
- cryo-EM structure [3]: bound to L-asp (GltPh^IFS-Asp)

Compound: N[C@H](C(=O)O)[C@H](OCc1cccc(NC(=O)c2ccc(C(F)(F)F)cc2)c1)C(=O)O [TFB-TBOA, (2S,3S)−3-[3-[4-(trifluoromethyl)benzoylamino]benzyloxy]aspartate]
- Kd [4]: 3.8 µM

Compound: GltPh, the fully functional seven-histidine mutant referred to as wildtype (WT) (from UniProt O59010 1-417) (natural protein)
- stoichiometry N [5]: 3
